Laboratory results from US6710090B2, “Inhibitory or blocking agents of molecular generating and/or inducing functions” (priority 1994, dated 2004).

How the values were obtained:
[1] = tested on: chicken myeloblastosis virus (AMV) reverse transcriptase; experiment: AMV reverse transcriptase, amount of cDNA synthesis; assay type: biochemical; conditions: 0.01 μl of Yoshixol added to 25 units AMV reverse transcriptase, RNA 5 μg, PCR
Experimental: (§1) In order to investigate the effect on virus, changes in structure of single strand DNA, double strand DNA and mRNA of E. coli bacteriophage (1 ml of 1 mol solution), which were prepared as non-treated sample and treated sample with 4 μl of Yoshixol, were observed by scanning and transmission electron microscopes. In addition, according a general bacteriological technique, changes in proliferation and in morphological aspect (by scanning and transmission electron microscopes) of E. Coli, which was infected by single strand DNA, double strand DNA or mRNA, were investigated before and after treatment of each phage with Yoshixol. As treated samples, 4 μl of Yoshixol was added in 1 ml of each phage solution which concentration was adjusted to 1 mol. […] In addition, an effect of Yoshixol on chicken myeloblastosis virus (AMV) reverse transcriptase (Gibco Co. Getesburg, Md., USA) was investigated by measuring amount of cDNA synthesis, which was amplified by PCR of RNA(5 μg) and AMV reverse transcriptase (25 units). As treated group, 0.01 μl of Yoshixol was added to 25 units sample of the AMV reverse transcriptase. Thus, the expected production of cDNA was obtained in the non-treated group, however, the amount of cDNA production decreased to 10% of the expected one when Yoshixol was treated (referred FIG. 15).

[2] = tested on: single strand DNA, double strand DNA and mRNA of E. coli bacteriophage; experiment: Antiviral effect, E. coli bacteriophage structure and infection, electron microscopes; assay type: cell-based
Experimental: as §1

[3] = tested on: rejected reaction on heterogeneous skin implantation; experiment: Heterogeneous skin implantation, donor skin pretreated with Yoshixol solution; assay type: in vivo, rabbit and dog
Text: Changes in transplanted skin for 3 months were observed by macroscopically and microscopically, when a piece of skin with entire layer (diameter 3 centimeter meter) at a region of the back of rabbit was transplanted to the region of the back of adult mongrel dog as the entire layer transplantation, and when a piece of skin with entire layer (diameter 3 centimeter meter) at a region of the back of adult mongrel dog was transplanted to the region of the back of rabbit as the entire layer transplantation. Firstly, each piece of skin from rabbit or dog was treated with 5 ml of physiological saline with 10 μl of the test solution for 2 minutes so that each skin piece was transplanted to each recipient by the surgical suture. Two kinds of the test solution were prepared for the above treatment; as control solution, basal solution consists of 2 ml of polyoxyethylene (20) sorbitan monoolate 1 (Wakou Jyunyaku Co.) which is identical to Tween 80 (ICI Ltd.) and 88 ml of physiological saline, and as treated solution, 10 ml of Yoshixol was added in the basal solution. And, 10 μl of Yoshixol was treated directly on the transplanted wound for 3 days after implantation. […] Then, implantated wound of the recipient was cured with a self regenerated skin of each recipient after 3 months. On the other hand, when a piece of transplanted skin is dipped in the Yoshixol solution, the treated skin became to be soft and increases in it's thickness. And, a suture procedure with surgical needle was easily done. […] So that an inflammatory tissue reaction was not also found after 1 month. […] Simultaneously with the above, Yoshixol can inhibit complications of infections on the donor tissues or organs, and can improve an implantation effect. Moreover, by using an entire layer (diameter 3 centimeter meter) of rabbit skin, changes in a piece of the transplanted skin which was sutured to the back of the dog as the recipient were investigated over 3 months after the implantation. […] An outer layer of the transplanted skin was faded 3 month after the implantation likely as to strip a thin membrane.

[4] = tested on: keratinocytes isolated from a human skin; experiment: Anti-cancer effect, cultured keratinocytes, microscopy; assay type: cell-based; conditions: 4 μl of Yoshixol
Text: Adhesive factors between cells play an important role on prolifelation of malignant tumor cells and metastasis. In order to investigate the adhesive factors between cells, intracellular structure of cultured keratinocytes are utilized to observe. Thus, by using keratinocytes isolated from a human skin and cultured in this invention, structure between cells and cellular aspect of keratinocytes (5 days passed after culturing of second generation) were investigated by phase microscope (Olympus Co., IMT-2), transmission type (JEOL, Ltd. JEM 1200, EXII) and scanning type (JEOL, Ltd. JSM-6000F) electron microscopes. In the non-treated group with Yoshixol, the cultured cells proliferated monologously and in order as like as a stone wall. There were normal aspects of intracellular organella and mitosis. There were not blank spaces between cell and filling with intracellular matrix (referred FIGS. 16a, 17a). […] In addition, extracellular matrix has been also dispersed in an irregularity from cells as various sizes of particles (referred FIGS. 16b, 17b). […] And also, Yoshixol has an inhibitory effect of cell prolifelation and metastasis such as tumor cells. […]

thrombin = thrombin (Homo sapiens, UniProt P00734); experiment: Function and configuration of thrombin, electrophoresis; assay type: biochemical; parameters: thrombin (Behlinger Manheim-Yamanouchi Co.) was investigated by electrophoresis; purchased Behlinger Manheim-Yamanouchi Co; conditions: after treatment with Yoshixol 4 μl
Experimental: Each physiological effect of trypsin (Wakou Jyunyaku Ltd.) and thrombin (Behlinger Manheim-Yamanouchi Co.) was investigated by electrophoresis. When trypsin was added to bovine albumin (Sigma Co. Saint Louis, Mo., USA) or myoglobin (Sigma Co. Saint Louis, Mo., USA), each primary structure of proteins which consist of albumin was altered by proteolytic action of trypsin. In addition, when thrombin was added to human fibrinogen (Behlinger Manheim-Yamanouchi Co.), a primary structure of proteins which consists of fibrinogen was not found.

In the case of `C=C1CC(C)(C)C=CC1=O` [Yoshixol, 4,4-dimethyl-6-methylene-2-cyclohexen-1-one], the “amount of cDNA production, of the expected one” value [1] is reported as 10%, the “helical and multi-dimensional structure of single strand DNA, double strand DNA and mRNA” value ([2]; 4 μl of Yoshixol in 1 ml phage solution (1 mol), electron microscopes) is reported as “became a simple structure” and the “adhesion of the phage on the bacterial surface and/or intrabacterial existence” value ([2]; E. coli infected with phage treated with Yoshixol) is reported as “not in the treated group”. The “desquamation and deciduation of transplanted skin” value ([3]; skin dipped 2 minutes in Yoshixol solution, 10 μl on wound for 3 days, 2 weeks after implantation) was “did not show a desquamation and deciduation”, the “inflammation reaction of transplanted skin” value ([3]; skin dipped in Yoshixol solution, 10 μl on wound for 3 days) was “inhibited” and the transplanted wound ([3]; skin dipped in Yoshixol solution, after 1 month) was “cured to a level which could not find a boundary with a skin of recipient”. For the same compound, the “aspects of cultured cells” value ([4]; 5 days after culturing of second generation) was “showed diverse irregularity”, the “cell membrane and intracellular organella” value ([4]; electron microscopes) was “destroyed with varieties” and the “physiological function of thrombin to fibrinogen” value (thrombin) was “did not occur”. The “primary structure of thrombin (electrophoresis)” value (thrombin) was “did not show any electrophoretic changes”.
